Measured values: ChEMBL document CHEMBL4732163 (Eur J Med Chem, 2021)

Experiments:
[1] = Cytotoxicity against DENV-2 New Guinea C infected human Huh-7 cells assessed as reduction in cell viability preincubated for 1 hr followed by viral infection and measured after 48 hrs by Alamar blue assay; format: cell-based; conditions: Huh-7 cells infected with DENV-2 New Guinea C, time 49 hrs
[2] = test system: dengue virus type 2; assay: Antiviral activity against DENV-2 New Guinea C infected in human Huh-7 cells preincubated for 1 hr followed by viral infection and measured after 48 hrs by Renilla luciferase reporter gene assay
[3] = biological target: T1, Cyclin-G-associated kinase (Homo sapiens, UniProt O14976); assay: Inhibition of tracer 222 binding to GAK (unknown origin) incubated for 1 hr by Lanthascreen TR-FRET assay
T1 sequence (O14976 whole entry): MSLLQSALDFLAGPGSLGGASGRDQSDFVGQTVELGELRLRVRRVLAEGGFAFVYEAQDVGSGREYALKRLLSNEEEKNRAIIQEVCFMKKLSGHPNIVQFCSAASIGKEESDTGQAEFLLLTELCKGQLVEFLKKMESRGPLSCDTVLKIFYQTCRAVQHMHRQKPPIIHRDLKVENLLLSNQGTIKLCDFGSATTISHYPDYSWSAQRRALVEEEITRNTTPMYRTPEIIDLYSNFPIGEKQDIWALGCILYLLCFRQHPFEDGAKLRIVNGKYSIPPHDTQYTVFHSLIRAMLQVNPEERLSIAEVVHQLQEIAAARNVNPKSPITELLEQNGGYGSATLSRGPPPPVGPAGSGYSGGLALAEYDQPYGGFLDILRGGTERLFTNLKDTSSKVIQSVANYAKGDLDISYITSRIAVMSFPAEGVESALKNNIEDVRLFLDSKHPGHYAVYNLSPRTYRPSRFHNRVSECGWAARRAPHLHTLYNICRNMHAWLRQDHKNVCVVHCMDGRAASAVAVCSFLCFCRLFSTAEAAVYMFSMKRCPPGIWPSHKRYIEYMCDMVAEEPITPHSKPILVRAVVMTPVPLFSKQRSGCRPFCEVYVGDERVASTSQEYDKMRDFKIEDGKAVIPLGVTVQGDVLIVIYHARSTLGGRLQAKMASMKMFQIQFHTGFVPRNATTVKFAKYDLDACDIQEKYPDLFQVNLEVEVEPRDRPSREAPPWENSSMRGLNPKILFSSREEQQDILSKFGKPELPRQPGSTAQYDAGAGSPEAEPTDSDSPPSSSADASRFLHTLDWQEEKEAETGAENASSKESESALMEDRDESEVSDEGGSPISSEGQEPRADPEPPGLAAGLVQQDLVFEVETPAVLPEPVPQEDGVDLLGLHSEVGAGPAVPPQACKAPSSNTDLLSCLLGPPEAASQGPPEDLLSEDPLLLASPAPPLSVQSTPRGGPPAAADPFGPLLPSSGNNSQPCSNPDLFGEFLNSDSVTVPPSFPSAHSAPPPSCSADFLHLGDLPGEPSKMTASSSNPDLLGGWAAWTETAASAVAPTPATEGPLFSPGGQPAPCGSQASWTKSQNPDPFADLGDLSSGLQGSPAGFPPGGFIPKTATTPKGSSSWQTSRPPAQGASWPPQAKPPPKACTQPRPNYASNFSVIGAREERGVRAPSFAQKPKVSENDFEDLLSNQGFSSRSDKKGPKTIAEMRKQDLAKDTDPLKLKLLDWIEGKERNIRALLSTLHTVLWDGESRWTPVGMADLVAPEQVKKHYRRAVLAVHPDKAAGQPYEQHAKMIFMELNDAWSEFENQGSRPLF

[4] = biological target: Receptor-type tyrosine-protein kinase FLT3 (Homo sapiens) (UniProt P36888); assay: Inhibition of wild-type human partial length FLT3 (V592 to Y969 residues) expressed in bacterial expression system assessed as residual activity at 10 uM by Kinomescan method relative to control
[5] = biological target: High affinity nerve growth factor receptor (Homo sapiens) (UniProt P04629); assay: Inhibition of wild-type human partial length TRKA (G475 to G790 residues) expressed in mammalian expression system assessed as residual activity at 10 uM by Kinomescan method relative to control
Chain of High affinity nerve growth factor receptor (Homo sapiens) (P04629 33-796 limits assumed): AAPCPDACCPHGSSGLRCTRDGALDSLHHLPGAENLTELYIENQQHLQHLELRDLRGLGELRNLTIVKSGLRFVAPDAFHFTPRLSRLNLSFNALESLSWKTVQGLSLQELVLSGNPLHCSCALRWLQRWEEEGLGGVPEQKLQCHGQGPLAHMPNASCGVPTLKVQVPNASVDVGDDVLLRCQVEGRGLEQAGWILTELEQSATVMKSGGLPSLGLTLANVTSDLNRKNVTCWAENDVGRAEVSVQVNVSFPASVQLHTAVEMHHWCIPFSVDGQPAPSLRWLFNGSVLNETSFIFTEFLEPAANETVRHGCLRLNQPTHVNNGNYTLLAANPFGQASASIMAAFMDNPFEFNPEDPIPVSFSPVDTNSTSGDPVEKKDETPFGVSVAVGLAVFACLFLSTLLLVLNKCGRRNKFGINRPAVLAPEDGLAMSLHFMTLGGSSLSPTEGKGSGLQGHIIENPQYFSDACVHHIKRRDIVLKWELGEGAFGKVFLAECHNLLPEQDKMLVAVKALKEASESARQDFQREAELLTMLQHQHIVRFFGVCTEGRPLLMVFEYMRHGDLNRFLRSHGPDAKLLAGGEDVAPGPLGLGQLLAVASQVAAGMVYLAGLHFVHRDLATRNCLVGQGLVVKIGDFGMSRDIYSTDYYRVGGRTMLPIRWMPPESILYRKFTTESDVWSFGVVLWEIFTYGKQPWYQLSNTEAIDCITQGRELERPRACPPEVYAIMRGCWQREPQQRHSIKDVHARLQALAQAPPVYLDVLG

[6] = biological target: Mast/stem cell growth factor receptor Kit (Homo sapiens) (UniProt P10721); assay: Inhibition of wild-type human partial length KIT (I571 to D952 residues) expressed in bacterial expression system assessed as residual activity at 10 uM by Kinomescan method relative to control
Chain of Mast/stem cell growth factor receptor Kit (Homo sapiens) (P10721 whole entry, the tested form may be a part): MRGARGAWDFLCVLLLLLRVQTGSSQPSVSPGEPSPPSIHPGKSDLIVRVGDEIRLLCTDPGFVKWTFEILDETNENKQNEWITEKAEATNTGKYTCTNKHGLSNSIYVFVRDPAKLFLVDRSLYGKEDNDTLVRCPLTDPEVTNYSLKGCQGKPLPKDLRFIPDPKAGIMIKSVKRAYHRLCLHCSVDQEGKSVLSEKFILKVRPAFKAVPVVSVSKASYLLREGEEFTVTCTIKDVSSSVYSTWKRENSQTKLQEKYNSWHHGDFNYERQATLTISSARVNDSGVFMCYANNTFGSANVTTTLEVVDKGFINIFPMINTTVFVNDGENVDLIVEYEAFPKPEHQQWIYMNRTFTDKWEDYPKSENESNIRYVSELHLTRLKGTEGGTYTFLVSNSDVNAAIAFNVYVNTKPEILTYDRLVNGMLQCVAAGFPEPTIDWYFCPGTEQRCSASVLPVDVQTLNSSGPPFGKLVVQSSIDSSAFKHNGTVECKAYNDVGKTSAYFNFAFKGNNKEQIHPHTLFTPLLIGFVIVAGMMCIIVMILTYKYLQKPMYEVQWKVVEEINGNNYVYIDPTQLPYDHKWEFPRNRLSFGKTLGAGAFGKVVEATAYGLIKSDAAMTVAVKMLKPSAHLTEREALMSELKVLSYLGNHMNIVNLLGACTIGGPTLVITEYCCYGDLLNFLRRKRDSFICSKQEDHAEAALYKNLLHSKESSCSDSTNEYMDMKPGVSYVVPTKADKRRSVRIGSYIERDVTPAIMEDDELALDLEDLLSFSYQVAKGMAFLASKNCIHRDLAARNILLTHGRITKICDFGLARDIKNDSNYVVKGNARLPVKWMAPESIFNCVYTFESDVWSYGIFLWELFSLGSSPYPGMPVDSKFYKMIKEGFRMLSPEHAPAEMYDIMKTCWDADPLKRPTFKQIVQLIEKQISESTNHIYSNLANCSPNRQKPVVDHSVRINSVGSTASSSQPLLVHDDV

[7] = biological target: Platelet-derived growth factor receptor beta (Homo sapiens) (UniProt P09619); assay: Inhibition of wild-type human partial length PDGFRB (V582 to Y1009 residues) expressed in bacterial expression system assessed as residual activity at 10 uM by Kinomescan method relative to control
Chain of Platelet-derived growth factor receptor beta (Homo sapiens) (P09619 whole entry, the tested form may be a part): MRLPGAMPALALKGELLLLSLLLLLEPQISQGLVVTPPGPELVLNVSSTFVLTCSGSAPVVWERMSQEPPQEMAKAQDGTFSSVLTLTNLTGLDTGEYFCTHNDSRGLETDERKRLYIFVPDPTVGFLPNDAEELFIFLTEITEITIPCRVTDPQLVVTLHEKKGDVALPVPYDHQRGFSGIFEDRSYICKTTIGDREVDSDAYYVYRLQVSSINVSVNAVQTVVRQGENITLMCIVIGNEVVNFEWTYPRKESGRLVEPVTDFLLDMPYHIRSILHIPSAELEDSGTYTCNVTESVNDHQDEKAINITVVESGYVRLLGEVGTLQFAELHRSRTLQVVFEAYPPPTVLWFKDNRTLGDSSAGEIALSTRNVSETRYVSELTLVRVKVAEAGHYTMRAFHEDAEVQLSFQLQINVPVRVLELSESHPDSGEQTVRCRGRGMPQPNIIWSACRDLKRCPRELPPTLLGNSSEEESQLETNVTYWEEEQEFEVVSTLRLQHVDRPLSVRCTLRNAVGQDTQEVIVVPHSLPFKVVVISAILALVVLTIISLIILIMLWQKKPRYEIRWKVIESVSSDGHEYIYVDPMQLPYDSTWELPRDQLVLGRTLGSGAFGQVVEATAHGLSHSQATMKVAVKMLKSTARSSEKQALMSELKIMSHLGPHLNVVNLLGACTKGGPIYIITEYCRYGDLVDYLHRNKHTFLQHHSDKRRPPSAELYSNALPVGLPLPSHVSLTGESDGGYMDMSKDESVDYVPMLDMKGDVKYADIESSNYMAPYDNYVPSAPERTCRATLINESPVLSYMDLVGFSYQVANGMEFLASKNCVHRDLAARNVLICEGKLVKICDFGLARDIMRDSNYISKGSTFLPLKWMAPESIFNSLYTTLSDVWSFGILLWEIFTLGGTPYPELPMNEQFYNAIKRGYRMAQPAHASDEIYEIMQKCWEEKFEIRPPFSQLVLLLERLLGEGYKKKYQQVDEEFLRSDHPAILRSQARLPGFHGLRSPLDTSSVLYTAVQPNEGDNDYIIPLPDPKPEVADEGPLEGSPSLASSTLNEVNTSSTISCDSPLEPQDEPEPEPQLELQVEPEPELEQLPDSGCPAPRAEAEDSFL

[8] = biological target: Cyclin-dependent kinase 7 (Homo sapiens) (UniProt P50613); assay: Inhibition of wild-type human full length CDK7 (M1 to L344 residues) expressed in mammalian expression system assessed as residual activity at 10 uM by Kinomescan method relative to control
Chain of Cyclin-dependent kinase 7 (Homo sapiens) (P50613 whole entry, the tested form may be a part): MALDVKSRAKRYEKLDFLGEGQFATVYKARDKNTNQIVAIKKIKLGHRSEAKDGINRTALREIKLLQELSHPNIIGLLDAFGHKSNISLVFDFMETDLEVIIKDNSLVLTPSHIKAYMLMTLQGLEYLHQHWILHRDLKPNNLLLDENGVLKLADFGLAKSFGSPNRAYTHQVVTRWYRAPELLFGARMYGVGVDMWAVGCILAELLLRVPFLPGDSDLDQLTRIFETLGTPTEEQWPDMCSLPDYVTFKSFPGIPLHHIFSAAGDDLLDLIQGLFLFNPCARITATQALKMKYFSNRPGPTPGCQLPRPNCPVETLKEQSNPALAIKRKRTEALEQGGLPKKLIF

[9] = biological target: MAP kinase-interacting serine/threonine-protein kinase 2 (Homo sapiens) (UniProt Q9HBH9); assay: Inhibition of wild-type human partial length MKNK2 (G63 to S388 residues) expressed in mammalian expression system assessed as residual activity at 10 uM by Kinomescan method relative to control
Chain of MAP kinase-interacting serine/threonine-protein kinase 2 (Homo sapiens) (Q9HBH9 whole entry, looked up, the tested form may be a part): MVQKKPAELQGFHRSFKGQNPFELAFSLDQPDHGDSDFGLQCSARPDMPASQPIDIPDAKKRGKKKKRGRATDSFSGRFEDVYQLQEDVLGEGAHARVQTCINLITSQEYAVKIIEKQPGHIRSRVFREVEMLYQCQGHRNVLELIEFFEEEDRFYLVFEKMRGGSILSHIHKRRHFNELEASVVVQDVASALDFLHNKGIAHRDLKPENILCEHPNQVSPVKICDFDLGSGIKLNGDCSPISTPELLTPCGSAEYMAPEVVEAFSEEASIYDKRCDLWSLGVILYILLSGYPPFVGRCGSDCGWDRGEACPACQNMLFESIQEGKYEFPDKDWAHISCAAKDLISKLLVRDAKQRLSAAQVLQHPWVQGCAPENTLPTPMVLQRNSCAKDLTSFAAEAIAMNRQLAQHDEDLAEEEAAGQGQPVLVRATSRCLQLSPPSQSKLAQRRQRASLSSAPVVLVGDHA

[10] = biological target: Platelet-derived growth factor receptor alpha (Homo sapiens) (UniProt P16234); assay: Inhibition of wild-type human partial length PDGFRA (V575 to D1002 residues) expressed in mammalian expression system assessed as residual activity at 10 uM by Kinomescan method relative to control
Chain of Platelet-derived growth factor receptor alpha (Homo sapiens) (P16234 whole entry, the tested form may be a part): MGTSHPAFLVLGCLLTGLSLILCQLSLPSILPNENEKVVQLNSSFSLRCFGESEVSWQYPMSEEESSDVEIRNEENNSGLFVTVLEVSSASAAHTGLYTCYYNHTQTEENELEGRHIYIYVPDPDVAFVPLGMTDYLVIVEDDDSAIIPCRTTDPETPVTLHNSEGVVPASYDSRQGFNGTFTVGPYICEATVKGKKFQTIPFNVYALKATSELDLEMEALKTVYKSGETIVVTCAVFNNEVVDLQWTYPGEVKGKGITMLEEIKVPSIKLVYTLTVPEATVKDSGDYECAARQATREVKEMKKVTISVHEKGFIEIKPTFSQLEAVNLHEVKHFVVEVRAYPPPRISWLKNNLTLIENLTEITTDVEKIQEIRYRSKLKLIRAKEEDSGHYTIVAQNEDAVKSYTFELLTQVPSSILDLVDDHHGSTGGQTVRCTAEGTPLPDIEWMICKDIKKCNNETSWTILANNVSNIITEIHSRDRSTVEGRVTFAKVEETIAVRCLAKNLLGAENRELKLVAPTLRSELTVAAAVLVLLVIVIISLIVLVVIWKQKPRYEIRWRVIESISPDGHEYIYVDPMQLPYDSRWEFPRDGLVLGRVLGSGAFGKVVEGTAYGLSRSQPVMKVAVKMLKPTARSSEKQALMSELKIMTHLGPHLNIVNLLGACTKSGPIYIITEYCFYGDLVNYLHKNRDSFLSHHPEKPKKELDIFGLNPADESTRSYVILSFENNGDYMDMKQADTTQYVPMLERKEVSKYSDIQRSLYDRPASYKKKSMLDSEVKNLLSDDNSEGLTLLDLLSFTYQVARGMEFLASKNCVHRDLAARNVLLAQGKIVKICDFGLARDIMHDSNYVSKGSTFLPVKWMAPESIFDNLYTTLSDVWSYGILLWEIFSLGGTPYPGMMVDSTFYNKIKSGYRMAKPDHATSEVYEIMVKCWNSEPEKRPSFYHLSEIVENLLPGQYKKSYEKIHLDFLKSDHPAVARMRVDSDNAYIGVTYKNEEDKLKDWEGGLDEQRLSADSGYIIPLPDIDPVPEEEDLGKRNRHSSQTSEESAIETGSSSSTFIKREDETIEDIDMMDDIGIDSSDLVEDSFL

Structure (SMILES): COc1cc(-c2cnc3c(-c4cccc(NC(=O)C(C)C)c4)snc3c2)ccc1N
- CC50 at 48 h [1]: 14 µM
- EC50 [2]: 3.8 µM

Structure (SMILES): COc1cc(-c2cnc3c(N4CCCC(CNC(=O)C5CCCC5)C4)snc3c2)ccc1N (stereo not drawn)
- CC50 at 48 h [1]: > 20 µM
- EC50 [2]: 2.6 µM

Structure (SMILES): COc1cc(-c2cnc3c(N4CCCC(CNC(=O)C5CC5)C4)snc3c2)ccc1N (stereo not drawn)
- IC50 [3]: 0.014 µM
- CC50 at 48 h [1]: > 20 µM
- EC50 [2]: 4 µM

Structure (SMILES): COc1cc(-c2cnc3c(N4C[C@@H](C)O[C@@H](C)C4)snc3c2)ccc1N
- CC50 at 48 h [1]: > 20 µM
- EC50 [2]: 0.96 µM

Structure (SMILES): COc1cc(-c2cnc3c(-c4cccc(NC(=O)N5CCOCC5)c4)snc3c2)ccc1N
- CC50 at 48 h [1]: > 20 µM
- EC50 [2]: 7.9 µM

Structure (SMILES): COc1cc(-c2cnc3c(N4CCOCC4)snc3c2)ccc1N
- IC50 [3]: 0.051 µM

Structure (SMILES): COc1cc(-c2cnc3c(-c4cccc(NC(=O)C5CC5)c4)snc3c2)ccc1N
- CC50 at 48 h [1]: 15 µM
- EC50 [2]: 3.6 µM

Structure (SMILES): COc1cc(-c2cnc3c(N4CCCC(CNC(=O)N5CCCC5)C4)snc3c2)ccc1N (stereo not drawn)
- CC50 at 48 h [1]: > 20 µM
- EC50 [2]: 4.1 µM

Structure (SMILES): COc1cc(-c2cnc3c(N4CCCC(CNC(=O)c5ccccc5)C4)snc3c2)ccc1N (stereo not drawn)
- CC50 at 48 h [1]: > 20 µM
- EC50 [2]: 3.9 µM

Structure (SMILES): COc1cc(-c2cnc3c(N4CCC[C@H](CNC(=O)C5CC5)C4)snc3c2)ccc1N
- Activity [4]: < 10%
- Activity [5]: < 10%
- Activity [6]: < 10%
- Activity [7]: < 10%
- IC50 [3]: 0.013 µM
- Activity [8]: < 10%
- Activity [9]: < 10%
- Activity [10]: < 10%
- CC50 at 48 h [1]: > 20 µM
- EC50 [2]: 7.5 µM

Structure (SMILES): C#Cc1cccc(Nc2ncnc3cc(OCCOC)c(OCCOC)cc23)c1 [ERLOTINIB]
- CC50 at 48 h [1]: > 20 µM
- EC50 [2]: 12 µM

Structure (SMILES): CCC(=O)Nc1cccc(-c2snc3cc(-c4ccc(N)c(OC)c4)cnc23)c1
- CC50 at 48 h [1]: 9.9 µM
- EC50 [2]: 1.9 µM

Structure (SMILES): CCC(=O)Nc1ccc(-c2snc3cc(-c4ccc(N)c(OC)c4)cnc23)cc1
- IC50 [3]: > 1.1 µM

Structure (SMILES): COc1cc(-c2cnc3c(N4CCC[C@@H](CNC(=O)C5CC5)C4)snc3c2)ccc1N
- IC50 [3]: 0.36 µM

Structure (SMILES): COc1cc(-c2cnc3c(-c4cccc(NC(=O)N5CCCC5)c4)snc3c2)ccc1N
- CC50 at 48 h [1]: > 20 µM
- EC50 [2]: 6 µM

Structure (SMILES): COc1cc(-c2cnc3c(-c4cccc(NC(=O)C5CCCC5)c4)snc3c2)ccc1N
- CC50 at 48 h [1]: 13 µM
- EC50 [2]: 1.8 µM
